Measurements: a compilation of properties of binary mixtures (doi:10.1016/j.fluid.2019.112324)

Test: xn = mol fraction of the nth substance listed
Details: 100 kPa

CCCC(C)O (configuration not stated) + CCCCCC[n+]1ccn(C)c1.O=[N+]([O-])[O-]
x2 = 0
Details	viscosity [mPa·s]
293.15 K	3.97
298.15 K	3.32
303.15 K	2.81
308.15 K	2.37
313.15 K	1.99
318.15 K	1.66

CCCCCC[n+]1ccn(C)c1.O=[N+]([O-])[O-] + CCCC(C)O
viscosity [mPa·s]
Details	293.15 K	298.15 K	303.15 K	308.15 K	313.15 K	318.15 K	323.15 K
x1 = 0.0814	8.28	6.18	–	3.48	–	2.12	–
x1 = 0.1609	14.69	–	7.26	5.08	3.72	2.81	2.11
x1 = 0.2408	–	16.18	11.09	7.43	5.31	3.76	2.74
x1 = 0.3491	42.8	29	19.05	12.22	8.55	5.85	4.09
x1 = 0.4393	69	44.8	29.4	18.45	12.22	8.65	6.05
x1 = 0.5608	122.5	79.4	50.9	32	21.2	14.52	10.28
x1 = 0.6509	177	117.2	76.9	49.3	33	22.4	–
x1 = 0.7401	–	173.4	–	–	50.1	34.9	25.8
x1 = 0.8508	–	285	189	125.3	85.7	61.8	47.3
x1 = 0.9393	614	416	282	195	136.2	99.7	76.9
x1 = 1	804	545	369	258	186	140.2	–
